What was measured:
[1] = test system: U87 human glioma cell lines; test: MTS cell viability assay, U87 glioma cells; format: cell-based; details: 48 hours, mean±SEM, n=3
Procedure: The human glioma cell lines U87, U251, T98G, U373, and rat glioma cell line RT2 provided by Dr. Michael Hsiao (Genomics Research Center, Academia Sinica, Taiwan) were cultured in Dulbecco's Modified Eagle medium (DMEM) (Caisson) supplemented with 10% fetal bovine serum (FBS) (Sigma-Aldrich), 2 mM L-glutamine (Caisson), 100 U/ml penicillin, and 100 μg/ml streptomycin (Caisson). The rat glioma C6 cell line provided by Dr. Shun-Fen Tzeng (National Cheng Kung University, Taiwan) was cultured in DMEM/F12 (Caisson) supplemented with 10% fetal bovine serum, 2 mM L-glutamine, 100 U/ml penicillin, and 100 μg/ml streptomycin. The human normal glia cell line SVGP12, kindly provided by Dr. Michael Hsiao, was cultured in Minimum Essential Medium (MEM) (Invitrogen) supplemented with 10% fetal bovine serum, 2 mM L-glutamine, 100 U/ml penicillin, and […]. Primary glia cells were prepared by surgery. Cerebral cortices without meninges were dissected from postnatal (P0-P2) Sprague-Dawley (SD, NCKU Laboratory Animal Center) rats and dissociated in 0.05% trypsin-EDTA (Biowest) at 37° C. for 10 min. Culture medium was added and pipetted for several times, and supernatant was removed after a centrifugation at 1,000 rpm for 5 minutes. […]
Cell proliferation was determined by MTS (tetrazolium compound, 3-(4,5-dimethylthiazol-2-yl)-5-(3-carboxymethoxyphenyl)-2-(4-sulfophenyl)-2H-tetrazolium) assay (Promega). […] The absorbance of soluble formazan was measured at 490 nm with microplate reader (Molecular device). The cell viability was determined by the percentage of the absorption relative to untreated control. […]
To investigate the effect of 2-aryl-4-quinazolinone in accordance with the present invention on cell proliferation, glioma cell lines were treated with MJ-66, MJ-68, or MJ-78. […] The cell viability of each group was analyzed by MTS assay (mean±SEM, n=3).

[2] = test system: U87 glioma cells; test: immunofluorescent staining, confocal microscopy; format: cell-based, human; details: 60 nM, 24 hours
Procedure: 2×10^4 cells were seeded on the PDL-coating 12 mm-glass coverslips in 24-well plate and allowed to attach for 24 hours at 37° C. Culture medium containing MJ-66 (IC50) or DMSO (0.006%) was added, and cells were incubated at 37° C. At indicated time points (0, 12 and 24 hr), cells were fixed in 4% paraformaldehyde (PFA) in PBS for 30 minutes. After permeabilized by 0.2% Triton X-100 in 0.1 M PBS for 10 minutes and 10% methanol containing 0.2% Triton X-100 in 0.1 M PBS for 5 minutes, cells were blocked in 3% bovine serum albumin (BSA, Sigma) for 1 hour. The cells were immunostained for mitotic spindle with mouse monoclonal alpha-tubulin (Sigma-Aldrich), and mitotic center with rabbit polyclonal gamma-tubulin (Genetex), and then stained with appropriated secondary antibodies conjugated with Texas Red or FITC for 1 hr. […] Fluorescence images were detected by confocal laser scanning microscope (FV1000, Olympus).
To observe the morphology of MJ-66-treated glioma cells, C6 or U87 glioma cells were treated with medium or 60 nM MJ-66 for 24 hours and stained with Hoechst 33342 and antibodies against alpha-tubulin conjugated with FITC or antibodies against gamma-tubulin conjugated with FITC in combination with antibodies against alpha-tubulin conjugated with Texas Red were detected by confocal laser scanning microscope. […]

`O=c1[nH]c(-c2cccc3ccccc23)nc2ccc(N3CCCC3)cc12` [Compound 23, 6-(Pyrrolidin-1-yl)-2-(naphthalen-1-yl)quinazolin-4-one] was tested, and the IC50 [1] was 54 ± 10 nM and the “nuclear morphology of U87 glioma cells” value [2] was “abnormal nuclear phenotype”.

— patent US8710064B2, “2-aryl-4-quinazolinones and their pharmaceutical compositions” (China Medical University, priority 2011, dated 2014)
